Columns and labels:
RUES2 cells [1] = assay: Removing individual factors or blocking signaling pathways during the ventralization stage (d6-d15); format: cell-based, human
Procedure: FIG. 3. Effect of removing individual factors or blocking signaling pathways during the ‘ventralization’ stage (d6-d15) on the expression of FOXA2 and NKX2.1 in RUES2 cells cultured according to the protocol shown on the upper right of the figure. 10× tile scans of 9 (3×3) contiguous fields. Immunofluorescence images represent reproducible results from 3 independent experiments.
Day-15, -25 or -48 cultures in 48-well tissue culture plates were fixed with 4% paraformaldehyde for 15 minutes at room temperature and washed twice with PBS. The cells were permeabilized in PBS with 0.25% triton and 5% fetal donkey serum (Jackson ImmunoResearch, West Grove, Pa.) for 30 min and blocked in 5% fetal donkey serum for 2 hours at room temperature. The cell cultures were stained with one, or a combination of two or three of the following primary antibodies: FOXA2/HNF-3β (goat, Santa Cruz Biotechnology, Inc., Santa Cruz, Calif., Cat#sc-6554, clone M-20, 1:50), TTF-1/Nkx2.1 (mouse, Invitrogen, 18-0221, clone 8G7G3/1, 1:100), TTF-1/Nkx2.1 (Rabbit, Seven Hills Bioreagents, Cincinnati, Ohio, Cat#WRAB-1231, 1:1000), p63α (rabbit, Santa Cruz, sc-8344, clone H-129, 1:100), Sox2 (Rabbit, stemgent, 09-0024, 1:100), Pax 6 (rabbit, Covance, Princeton, N.J., Cat#PRB-278P, 1:300), Pax8 (mouse, Abcam, Cambridge, Mass., Cat#ab53490, 1:100), EpCAM (APC conjugated, mouse, BD Biosciences, BDB347200), Tuj1 (mouse, Sigma, T8578, Clone 2G10, 1:4000), Mucin5AC (mouse (Biotin), Abcam, ab79082, clone 45M1, 1:100), Mucin5B (rabbit, Santa Cruz, sc-20119, clone H-300, 1:100), Mucin2 (rabbit, Santa Cruz, sc-15334, clone H-300, 1:100), Foxj1 (mouse, e-bioscience, San Diego, Calif., Cat#14-9965-82, Clone: 2A5, 1:100), cc-10 (goat, Santa Cruz, clone C-20, sc-9770, 1:100), pro-SPC (rabbit, Seven Hills, WRAB-9337, 1:2000), mature-SPC (rabbit, Seven Hills, WRAB-76694, 1:1000), mature SPB (rabbit, Seven Hills, WRAB-48604, 1:1000), ABCA3 (rabbit, Seven Hills, WRAB-70565, 1:100), Mucin1 (Armenian Hamster, NeoMarkers, Fremont, Calif., Cat#HM-1630-P1ABX, clone MH1, 1:100), Podoplanin (rabbit, Santa Cruz, sc-134482 , FL-162, 1:100), AQP5 (goat, Santa Cruz, sc-9890, clone G-19, 1:100). Secondary antibodies were donkey anti-mouse whole IgG-Alexa Fluor 488, 715-545-150, donkey anti-mouse whole IgG-Alexa Fluor 647, 715-605-150, donkey anti-rabbit whole IgG-Alexa Fluor 488, 711-545-152, donkey anti-rabbit whole IgG-Cy3, 711-166-152, donkey anti-goat whole IgG-Alexa Fluor 488, donkey anti-goat whole IgG-Cy3, 705-165-147, donkey anti-goat whole IgG-Alexa Fluor 647, 705-605-147, all from Jackson ImmunoResearch.
For d6-15 lung progenitor induction (9 days) , the AFE from Example 3 were treated with a ‘ventralization’ cocktail containing CHIR99021, 3 μM (WNT signaling agonist), human FGF10, 10 ng/ml; human FGF7, 10 ng/ml; human BMP4, 10 ng/ml; murine EGF, 20 ng/ml and all-trans retinoic acid (ATRA), 0-1 μM (all from R&D, except CHIR99021 from (Stemgent, Cambridge. Mass.) and ATRA from Sigma) in SFD media for 8-10 days. This treatment produced lung and airway progenitor cells (also herein referred to as “lung field progenitor cells”). At this stage, the lung progenitor cells were early, and they might have committed to a lineage of either lung or airway epithelium, but we wouldn't be able to know because the corresponding airway and distal lung specific markers are not expressed at this stage yet.
To examine the contribution of each of the factors to the specification of lung and airway progenitors, each of the factors was withdrawn from the ‘ventralization’ cocktail (i.e., CHIR99021, FGF10, FGF7, BMP4 and EGF), or blocked by specific inhibitors (i.e., NOGGIN as biological inhibitor of BMP4 signaling and IWP2 as pharmacological inhibitor of WNT signaling), or added at different concentrations (i.e., RA 0, 0.05, 0.1, 0.5, 1 μM, and BMS493 (10 μM, Tocris) as RA inhibitor). […]

RUES2 cells [2] = assay: RA concentration in the ventralization cocktail (NKX2.1 and FOXA2 mRNA and protein); format: cell-based, human
Procedure: FIG. 2.(a) Expression of NKX2.1 and FOXA2 mRNA (lower left) and protein (lower right) after culture of RUES2 cells according to the protocol on top of the panel using various concentrations of RA during the ‘ventralization’ stage. Triplicate experiments representative of 3 independent experiments, *, P<0.05, compared with 0.5 μM RA group. (b) 10× tile scan of 25 (5×5) contiguous fields showing expression of FOXA2, SOX2 and NKX2.1 in RUES2 cells cultured according to the protocol on top of the panel. (c) 20× tile scan of 4 (2×2) contiguous fields showing expression of TUJ1, NKX2.1 and FOXA2.1 in RUES2 cells cultured according to the protocol on top of panel (b). […]
Total RNA was extracted using Trizol (Invitrogen), phase lock tubes (5′ Prime) and RNeasy kit (Qiagen, Valencia, Calif.). RNA concentration was measured with a NanoDrop 2000 […] (Thermo Fisher Scientific). […] Real-time quantitative PCR was performed on ABI vii7A Thermocycler [Applied Biosystems (Life Technologies)] using ABI Power SYBR Green PCR Master Mix [Applied Biosystems (Life Technologies)]. […] Absolute quantification of each gene was obtained using a standard curve of serial diluted genomic DNA and normalized to housekeeping genes β-ACTIN and TBP (Tata Box Binding protein). […]

[3] = factor removed from the CFKB cocktail, d6-d15

Molecule: Cc1c[nH]c(-c2cnc(NCCNc3ccc(C#N)cn3)nc2-c2ccc(Cl)cc2Cl)n1 [CHIR]
- effect of removing the factor on generation of FOXA2+ and FOXA2+NKX2.1+ cells (RUES2 cells [1]; [3]): severely reduced

Molecule: Cc1ccc2nc(NC(=O)CSc3nc4c(c(=O)n3-c3ccccc3)SCC4)sc2c1 [IWP2]
- generation of NKX2.1+ cells (RUES2 cells [1]; CHIR removed plus additional blockade of endogenous WNT signaling by the substance): completely abrogated

Molecule: CC1=C(/C=C/C(C)=C/C=C/C(C)=C/C(=O)O)C(C)(C)CCC1 [RA, all-trans retinoic acid]
- NKX2.1 mRNA and NKX2.1+ fraction (RUES2 cells [2]; higher RA concentrations, FOXA2+ endoderm maintained): dropped
- induction of NKX2.1 and FOXA2 mRNA and protein (RUES2 cells [2]; low RA concentrations (0.05-0.1 μM)): optimal induction

B1: NOGGIN: biological inhibitor of BMP4 signaling (protein, UniProt Q13253 28-232, looked up)
Noggin: QHYLHIRPAPSDNLPLVDLIEHPDPIFDPKEKDLNETLLRSLLGGHYDPGFMATSPPEDRPGGGGGAAGGAEDLAELDQLLRQRPSGAMPSEIKGLEFSEGLAQGKKQRLSKKLRRKLQMWLWSQTFCPVLYAWNDLGSRFWPRYVKVGSCFSKRSCSVPEGMVCKPSKSVHLTVLRWRCQRRGGQRCGWIPIQYPIISECKCSC
- generation of FOXA2+NKX2.1+ cells (RUES2 cells [1]; BMP signaling blocked by addition of the substance during ventralization stage): less than 5%

B2: BMP4: human BMP4, factor of the ventralization cocktail (protein, UniProt P12644 293-408, looked up)
Bone morphogenetic protein 4: SPKHHSQRARKKNKNCRRHSLYVDFSDVGWNDWIVAPPGYQAFYCHGDCPFPLADHLNSTNHAIVQTLVNSVNSSIPKACCVPTELSAISMLYLDEYDKVVLKNYQEMVVEGCGCR
- generation of NKX2.1+ cells after removing the factor (RUES2 cells [1]; [3]): approximately 40%

B3: FGF7: human FGF7 (KGF), factor of the ventralization cocktail (protein, UniProt P21781 32-194, looked up)
Fibroblast growth factor 7: CNDMTPEQMATNVNCSSPERHTRSYDYMEGGDIRVRRLFCRTQWYLRIDKRGKVKGTQEMKNNYNIMEIRTVAVGIVAIKGVESEFYLAMNKEGKLYAKKECNEDCNFKELILENHYNTYASAKWTHNGGEMFVALNQKGIPVRGKKTKKEQKTAHFLPMAIT
- effect of removing the factor on generation of FOXA2+ and FOXA2+NKX2.1+ cells (RUES2 cells [1]; [3]): no effect

B4: FGF10: human FGF10, factor of the ventralization cocktail (protein, UniProt O15520 38-208, looked up)
Fibroblast growth factor 10: QALGQDMVSPEATNSSSSSFSSPSSAGRHVRSYNHLQGDVRWRKLFSFTKYFLKIEKNGKVSGTKKENCPYSILEITSVEIGVVAVKAINSNYYLAMNKKGKLYGSKEFNNDCKLKERIEENGYNTYASFNWQHNGRQMYVALNGKGAPRRGQKTRRKNTSAHFLPMVVHS
- effect of removing the factor on generation of FOXA2+ and FOXA2+NKX2.1+ cells (RUES2 cells [1]; [3]): no effect
